Measurements from paper PMC4099323, “Inhibition of Catalase by Tea Catechins in Free and Cellular State: A Biophysical Approach” (PLoS ONE, 2014).
pIC50, pKd: −log10 of the molar value.

Key:
[1] = biological target: T1, Catalase (from bovine liver) (Bos taurus, UniProt P00432); assay: Fluorimetric titration: quenching of catalase fluorescence by catechins; type: binding; conditions: double logarithmic plot, 25°C; for Kd: pH 7.4, λex 280 nm, read-out: binding constant K with catalase (fluorimetric) (converted)
T1 construct: Catalase (from bovine liver); purchased Sigma-Aldrich, St. Louis, MO, USA; host or cells: bovine liver
T1 sequence (P00432 2-527 limits assumed): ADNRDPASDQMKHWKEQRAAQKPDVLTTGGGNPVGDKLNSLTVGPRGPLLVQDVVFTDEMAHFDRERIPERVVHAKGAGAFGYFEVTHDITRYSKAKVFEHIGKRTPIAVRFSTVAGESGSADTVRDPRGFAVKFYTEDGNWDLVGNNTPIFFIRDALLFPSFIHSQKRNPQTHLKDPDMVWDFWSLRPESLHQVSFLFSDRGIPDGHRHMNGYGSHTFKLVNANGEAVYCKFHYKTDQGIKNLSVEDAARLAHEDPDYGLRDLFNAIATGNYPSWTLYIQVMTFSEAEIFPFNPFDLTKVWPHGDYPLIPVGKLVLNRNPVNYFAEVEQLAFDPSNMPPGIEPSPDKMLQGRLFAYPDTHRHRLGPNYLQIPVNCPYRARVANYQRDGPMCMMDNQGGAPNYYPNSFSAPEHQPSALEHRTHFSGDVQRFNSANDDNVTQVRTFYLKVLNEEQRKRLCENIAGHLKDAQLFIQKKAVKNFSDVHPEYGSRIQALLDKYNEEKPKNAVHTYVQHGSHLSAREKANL
Description: Fluorescence spectra were recorded using a Perkin Elmer fluorescence spectrophotometer (LS-55) equipped with 150 W Xenon flash lamp and using fluorescence-free quartz cell of 1 cm path length. The widths of excitation and emission slits were set to 5 nm, and scan speed (100 nm/min), excitation voltage were kept constant for each data set. Quantitative analysis of the potential interaction between catechins and catalase was performed by the fluorimetric titration technique. Briefly, solution of catalase (5×10^−7 M, as calculated using molar extinction coefficient of 3.24×10^5 M^−1 s^−1 at 405 nm for catalase) in 50 mM phosphate buffer of pH 7.4 was titrated in cuvette by successive additions of individual catechin solution aliquots from a stock of 5×10^−7 M. Fluorescence emission spectra were recorded in the wavelength range of 290–450 nm upon excitation at 280 nm when catalase samples were titrated with catechins. All experiments were carried out at room temperature. Fluorescence intensity was measured at 340 nm of protein emission spectra. Fluorescence spectra of individual catechins in buffer were recorded as blanks under the same experimental conditions and subtracted from the corresponding sample to correct the fluorescence background.
The binding constants and the number of binding sites involved were calculated according to the relation: log (F0–F)/F = log K+n log [Q], where K is the binding constant and n is the number of binding sites, F0 is the fluorescence intensity of free catalase, F is the consecutive fluorescence on addition of catechins, and [Q] is the concentration of the quencher (here catechins). A plot of log (F0– F)/F and log [Q] was used to determine the values of K and n from the intercept and the slope respectively (Figure 3 A–D).

[2] = biological target: T1, Catalase (from bovine liver); assay: Isothermal titration calorimetry of catechins binding to catalase; conditions: 25°C; for ΔG / ΔH / ΔS: ITC; for ΔG: calculated from the average values of ΔH; for ΔH / ΔS: directly extracted from the experiment; for Kd: one-site binding model, from ΔG = −RT ln K, read-out: binding constant with catalase (ITC) (converted)
Description: The energetics of the binding of catechins to catalase was studied by ITC using a MicroCal ITC200, (Northampton, MA, USA). All solutions were degassed under vacuum (140 mbar, 10 min) on the MicroCal’s Thermovac unit to eliminate air bubble formation inside the calorimeter cell. Briefly, the calorimeter syringe was filled with a concentrated solution of catechins (10 µM each). Successive injections of this solution into 1 µM solution of catalase in the calorimeter cell were effected from the rotating syringe with constant stirring of the solution. The titration and analysis were performed through Origin 7 software provided with the unit.
ITC directly measures the heat released during a chemical reaction. ITC can reveal the stoichiometry, enthalpy free energy, and entropy changes that occur over the course of a reaction, [46]. Data obtained from the titration are presented by the series of peaks corresponding to each injection. Usually, this representation is transformed into the apparent heat change between two injections as a function of the titrant ratio by means of integration of power differential with regard to time. ITC has been used mainly to quantify interactions in various biochemical systems [47]–[49]. ITC has been used in the present study to determine binding affinity and other thermodynamic parameters of catechins-catalase interaction. Representative isothermal calorimetric heat profiles for the binding of catechins-catalase interaction, at physiological pH and 25°C are shown in Figure 4 (A–D). The data were corrected for the heat of dilution of catechins, which was determined in a separate set of experiments under identical conditions. The titration and analysis were performed using one-site binding model through Origin 7 software provided with the unit. From Figure 4 it is observed that the titration of catalase with all the four catechins yield negative heat deflections. EC, EGC, ECG, and EGCG bind to catalase with binding constants 2.13×10^5, 1.92×10^5, 6.36×10^5, and 8.19×10^5 M^−1, respectively, as determined by the following equation: ΔG = −RT ln K, where ΔG is the free energy, R and T are the gas constant and temperature, respectively, K is the binding constant.

[3] = biological target: T1, Catalase (from bovine liver); assay: Circular dichroism: catechin-induced conformational change in catalase; conditions: catalase 1 µM, ligands 3 µM each, 25°C
Description: All the CD experiments were carried out on a Jasco-815 automatic spectropolarimeter (Jasco International Co., Ltd. Hachioji, Japan) equipped with a peltier cuvette holder and temperature controller PFD425 L/15. The catalase concentration and path length of the cuvette used were 1 µM and 0.1 cm, respectively. The instrument parameters were set at scanning speed of 50 nm/min, bandwidth of 1.0 nm and sensitivity of 100 milli degree. The molar ellipticity values are expressed in terms of mean residue molar ellipticity, in units of deg. cm^2 dmol^−1.
CD allows investigation of the conformational changes that occur in a protein upon ligand binding. The CD spectra of catalase at pH 7.4 in the absence and in the presence of EGC, EC, ECG, EGCG, and 3-AT at 25°C are represented in Figure 5 (a – f). […] The negative band at 208 and 220 nm decreased in intensity with the addition of various catechins, which is indicative of the loss of α-helicity upon interaction. […] From the CD spectra, the effect of catechins on the secondary structure of catalase is in the following order: 3-AT>EGCG>ECG>EC>EGC.

[4] = biological target: T1, Catalase (from bovine liver); assay: Inhibition of pure catalase activity (cell free), H2O2 decay at 240 nm; type: biochemical; conditions: pure catalase, 50 µM each, 1 h incubation
Description: Absorption spectrophotometer (Varian, CARY 100 Bio, USA) was used to determine pure catalase activity (cell free). Briefly, 900 µl of H2O2 (0.036%) was taken in quartz cell of 1 cm path length and its absorbance was recorded at 240 nm. To the solution, 100 µl of catalase (50 U/ml) was added and the decrease in absorbance was recorded at 10 s interval. This experiment was performed in presence 50 µM each of four catechins and 3-AT separately to evaluate the inhibitory effect of catechins on catalase activity, after 1 h incubation.
On addition of catechins, a decrease in rate of H2O2 degradation i.e. a decrease in pure catalase activity was observed which is represented in Figure 6A. Catechins with galloyl moiety (ECG and EGCG) reduced catalase activity more than its non-gallated counterparts i.e. EGC and EC. However, Inhibition by EGCG is the closest to inhibition by known catalase inhibitor 3-AT.

[5] = biological target: human dihydrofolate reductase (DHFR); design: method as in PMID 20054477; conditions: fluorescence quenching; cited from earlier work
K562 cells = assay: MTT cell viability assay; type: cell-based; conditions: Homo sapiens
Description: Cell viability of K562 cells was quantified by MTT based colorimetric assay as described elsewhere. Briefly, cells were rinsed with PBS and 0.5 mg/ml MTT was added into each sample. The mixture was incubated at 37°C for an additional 3 h. At the end of incubation period, the medium containing MTT was removed and the pellet was dissolved in 200 µl DMSO. Absorbance was measured at a wavelength of 570 nm. Cell viability was expressed as a percentage of the control culture.
The concentration (IC50) at which the K562 cell survivability was reduced to 50% was calculated for EGCG and 3-AT by MTT based cell viability assay.

catalase = conditions: cited from earlier work

| Compound | number of binding sites n [1] | Kd [1] [µM] | ΔG [2] [cal/mol] | ΔH [2] [cal/mol] | ΔS [2] | Kd [2] [µM] | order of effect on the secondary structure of catalase (loss of α-helicity) [3] | order of inhibition of catalase activity [4] | pKd [5] | binding to DHFR [5] | pIC50 (K562 cells) | binding constant of catalase-microcystin complex (catalase) [M⁻¹] |
| --- | --- | --- | --- | --- | --- | --- | --- | --- | --- | --- | --- | --- |
| O=C(OC1Cc2c(O)cc(O)cc2OC1c1ccc(O)c(O)c1)c1cc(O)c(O)c(O)c1 (single isomer, unassigned; (-)) [ECG, (−)-epicatechin gallate] | single binding site | 0.602 | -7800 | -756000 ± 30200 | −2.60×10^3 cal/mol/K | 1.57 | 3-AT>EGCG>ECG>EC>EGC | 3-AT>EGCG>ECG>EC>EGC | 5.74 | – | – | – |
| Oc1cc(O)c2c(c1)OC(c1cc(O)c(O)c(O)c1)C(O)C2 (single isomer, unassigned; (-)) [EGC, (−)-epigallocatechin] | single binding site | 12.7 | -7100 | -3.2e+09 ± 1.06e+08 | −1.07×10^7 cal/mol/K | 5.21 | 3-AT>EGCG>ECG>EC>EGC | 3-AT>EGCG>ECG>EC>EGC | – | did not bind | – | – |
| Nc1nc[nH]n1 [3-AT, 3-amino-1,2,4-triazole, reference compound] | – | – | – | – | – | – | 3-AT>EGCG>ECG>EC>EGC | 3-AT>EGCG>ECG>EC>EGC | – | – | 4.98 | – |
| Oc1cc(O)c2c(c1)O[C@H](c1ccc(O)c(O)c1)[C@H](O)C2 [EC, (−)-epicatechin] | single binding site | 9.26 | -7170 | – | −2.40×10^7 cal/mol/K | 4.69 | 3-AT>EGCG>ECG>EC>EGC | 3-AT>EGCG>ECG>EC>EGC | – | did not bind | – | – |
| microcystin | – | – | – | – | – | – | – | – | – | – | – | 61200 |
